Species on record: Mus musculus
Assay: Inhibition of mouse B16B15b cell migration after 16 hrs by wound-healing assay
Type: functional

SMILES | Activity
CC1=C2CC/C(C)=C/C[C@H](O)[C@]3(C)O[C@H]3CC/C(C)=C/[C@H]2OC1 | Dose-dependent effect
CC1=C2CC/C(C)=C/C[C@H](O)[C@]3(C)O[C@H]3CC/C(C)=C/[C@@H]2OC1=O | Dose-dependent effect
C/C1=C\[C@H]2OC[C@@]3(C)O[C@@]23CC/C(C)=C/CC[C@]2(C)O[C@H]2CC1 | Dose-dependent effect
CC1=C2CC/C(C)=C/CC[C@]3(C)O[C@H]3CC/C(C)=C/[C@H]2OC1 | Dose-dependent effect
CC1=C2CC/C(C)=C/[C@@H](O)C[C@]3(C)O[C@H]3CC/C(C)=C/[C@H]2OC1 | Dose-dependent effect
CC1=C2CC/C(C)=C/CC[C@]3(C)O[C@H]3CC/C(C)=C/[C@@H]2OC1=O | Dose-dependent effect
CC1=C2[C@@H](O)C/C(C)=C/CC[C@]3(C)O[C@H]3CC/C(C)=C/[C@H]2OC1 | Dose-dependent effect

From ChEMBL document CHEMBL1142599, “Biocatalytic and antimetastatic studies of the marine cembranoids sarcophine and 2-epi-16-deoxysarcophine” (J Nat Prod, 2006)
